The record followed here is ChEMBL document CHEMBL1136679, “Phenylacetic acid derivatives as hPPAR agonists” (Bioorg Med Chem Lett, 2003).

For data set [1], the target named is T1, Peroxisome proliferator-activated receptor alpha (Homo sapiens, UniProt Q07869).
T1 sequence (Q07869 whole entry): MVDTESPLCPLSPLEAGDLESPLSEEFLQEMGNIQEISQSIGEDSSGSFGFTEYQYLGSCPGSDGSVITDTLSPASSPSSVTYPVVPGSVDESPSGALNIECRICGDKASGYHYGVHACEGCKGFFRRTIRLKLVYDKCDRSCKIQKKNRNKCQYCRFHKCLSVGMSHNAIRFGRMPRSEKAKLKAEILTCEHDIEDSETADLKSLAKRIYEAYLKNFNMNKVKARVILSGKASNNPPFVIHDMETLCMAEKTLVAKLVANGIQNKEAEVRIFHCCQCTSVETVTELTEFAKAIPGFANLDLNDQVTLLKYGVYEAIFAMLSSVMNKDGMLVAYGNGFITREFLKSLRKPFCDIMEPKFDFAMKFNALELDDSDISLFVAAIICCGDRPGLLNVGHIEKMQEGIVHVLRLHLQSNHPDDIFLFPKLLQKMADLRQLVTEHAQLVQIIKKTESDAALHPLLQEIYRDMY

Data set [2] concerns the target T2, Peroxisome proliferator-activated receptor delta (Homo sapiens, UniProt Q03181).
T2 sequence (Q03181 whole entry): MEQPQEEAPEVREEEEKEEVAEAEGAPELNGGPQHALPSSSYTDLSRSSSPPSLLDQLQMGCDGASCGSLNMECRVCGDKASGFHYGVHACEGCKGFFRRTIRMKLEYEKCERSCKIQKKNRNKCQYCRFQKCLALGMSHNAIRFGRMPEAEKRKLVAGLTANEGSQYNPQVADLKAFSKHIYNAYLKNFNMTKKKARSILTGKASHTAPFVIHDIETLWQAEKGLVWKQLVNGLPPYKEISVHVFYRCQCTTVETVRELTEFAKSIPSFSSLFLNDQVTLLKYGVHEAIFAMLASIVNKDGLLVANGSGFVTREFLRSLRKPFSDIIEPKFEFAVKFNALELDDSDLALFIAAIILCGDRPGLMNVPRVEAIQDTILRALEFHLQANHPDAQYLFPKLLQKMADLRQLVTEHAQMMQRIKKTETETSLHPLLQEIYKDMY

The target of data set [3] is T2, Peroxisome proliferator-activated receptor delta. The source holds these as a separate data set.
The target in data set [4] is T1, Peroxisome proliferator-activated receptor alpha. The source holds these as a separate data set.
For data set [5], the species on record is Mus musculus. In kind it is functional, Plasma. Particulars: at 30 mg/kg/day; call rule not given here.
The species entered for data set [6] is Mus musculus. In kind it is functional, Plasma. To be noted: at 30 mg/kg/day. The source holds these as a separate data set.
Data set [7] is filed under the species Mus musculus. In kind it is functional, Plasma. To be noted: at 30 mg/kg/day. This is another data set of the same source.
A short description of data set [8]: in vivo. To be noted: male, Sprague-Dawley, rat, iv.
The species named for data set [9] is Rattus norvegicus. To be noted: in vivo, po, 10 mg/kg.
Data set [10] is described as follows: in vivo. To be noted: male, Sprague-Dawley, rat, iv. The source holds these as a separate data set.
Data set [11] is filed under the species Mus musculus. In kind it is functional, Plasma. Particulars: at 3 mg/kg/day.
For data set [12], the species on record is Mus musculus. In kind it is functional, Plasma. To be noted: at 3 mg/kg/day. The source holds these as a separate data set.
For data set [13], the species on record is Rattus norvegicus. In kind it is functional, Plasma. Particulars: at 10 mg/kg/day.
Data set [14] is filed under the species Rattus norvegicus. In kind it is functional, Plasma. To be noted: at 10 mg/kg/day. This is another data set of the same source.
The species entered for data set [15] is Rattus norvegicus. In kind it is functional, Plasma. Particulars: at 10 mg/kg/day. The source holds these as a separate data set.
Data set [16] in a line: in vivo. Particulars: male, Sprague-Dawley, rat, po, 10 mg/kg.
For data set [17], the species on record is Mus musculus. In kind it is functional, Plasma. Particulars: at 10 mg/kg/day.
Data set [18] is filed under the species Rattus norvegicus. In kind it is functional, Plasma. To be noted: at 30 mg/kg/day.
Data set [19] is filed under the species Rattus norvegicus. In kind it is functional, Plasma. To be noted: at 3 mg/kg/day.
For data set [20], the species on record is Mus musculus. In kind it is functional, Plasma. To be noted: at 10 mg/kg/day. The source holds these as a separate data set.
The species named for data set [21] is Rattus norvegicus. In kind it is functional, Plasma. Particulars: at 3 mg/kg/day. This is another data set of the same source.
For data set [22], the species on record is Rattus norvegicus. In kind it is functional, Plasma. To be noted: at 30 mg/kg/day. The source holds these as a separate data set.
The species named for data set [23] is Rattus norvegicus. In kind it is functional, Plasma. To be noted: at 30 mg/kg/day. This is another data set of the same source.
The species entered for data set [24] is Mus musculus. In kind it is functional, Plasma. To be noted: at 30 mg/kg/day. This is another data set of the same source.
For data set [25], the species on record is Rattus norvegicus. In kind it is functional, Plasma. Particulars: at 3 mg/kg/day. The source holds these as a separate data set.
For data set [26], the species on record is Rattus norvegicus. In kind it is functional, Plasma. To be noted: at 30 mg/kg/day. This is another data set of the same source.
The species entered for data set [27] is Rattus norvegicus. In kind it is functional, Plasma. Particulars: at 30 mg/kg/day. The source holds these as a separate data set.
Data set [28] is filed under the species Mus musculus. In kind it is functional, Plasma. To be noted: at 100 mg/kg/day.
The species named for data set [29] is Rattus norvegicus. In kind it is functional, Plasma. To be noted: at 100 mg/kg/day.
The species entered for data set [30] is Mus musculus. In kind it is functional, Plasma. Particulars: at 100 mg/kg/day. This is another data set of the same source.
For data set [31], the species on record is Rattus norvegicus. In kind it is functional, Plasma. Particulars: at 100 mg/kg/day. The source holds these as a separate data set.
For data set [32], the species on record is Rattus norvegicus. In kind it is functional, Plasma. To be noted: at 100 mg/kg/day. This is another data set of the same source.
Data set [33] is filed under the species Mus musculus. To be noted: Plasma.

Consider `CCCc1c(OCCCSc2ccc(CC(=O)O)cc2Cl)ccc(C(=O)CC)c1O`, for which the IC50 (usually the concentration that inhibits the measured activity by half) was determined as 0.6 µM in [1] and 0.02 µM in [2]. Further, the EC50 – broadly, the concentration at which the effect is half-maximal – worked out at 0.01 µM in data set [3] and 0.26 µM in data set [4] (read-out: EC50).
`CCCc1c(OCCCSc2ccc(CC(=O)O)cc2Cl)ccc2c(CC)coc12` gave an IC50 in [1] of 1.73 µM. In the data set listed under Mus musculus [5], this compound had a Corr of 74%. For the same compound, in the data set filed under Mus musculus [6], the Dec was found to be 60%. The 50% effective concentration (EC50) in [4] (read-out: EC50) worked out at 1.3 µM.
As for `CCCc1c(OCCCSc2ccc(CC(=O)O)cc2Cl)ccc2c(C(F)(F)F)noc12`, the figures for the concentration for half-maximal inhibition (IC50) in data set [1] and in data set [2] were 0.31 µM and 0.01 µM, respectively. The Corr came to 96% in the data set filed under Mus musculus [7]; 30% in the data set filed under Mus musculus [11]; 83% in the data set listed under Rattus norvegicus [14]; 95% in the data set listed under Rattus norvegicus [18]; 18% in the data set listed under Rattus norvegicus [19]; 71% in the data set filed under Mus musculus [20]. The clearance (usually the volume of plasma or blood freed of the substance per unit of time) in the data set “in vivo [8]” turned out to be 2.6 mL/min/kg. The compound also registered a nAUC in the data set listed under Rattus norvegicus [9] of 2520 ng·h/mL. In “in vivo [10]”, the half-life (usually the time in which the quantity being followed falls by half) was 4.7 h. The Dec in the data set listed under Mus musculus [12] is listed as 46%; in the data set filed under Rattus norvegicus [13], -53%; in the data set listed under Rattus norvegicus [15], 52%; in the data set listed under Mus musculus [17], 46%; in the data set filed under Rattus norvegicus [21] it was 45%; in the data set filed under Rattus norvegicus [22] it was 74%. The Dec is -65% in the data set listed under Rattus norvegicus [23], 81% in the data set listed under Mus musculus [24] and -34% in the data set listed under Rattus norvegicus [25]. Further, the bioavailability (as a rule, dose-corrected exposure relative to a reference, in per cent) in “in vivo [16]” was determined as 100%. The EC50 worked out at 0.005 µM in data set [3] and 0.125 µM in data set [4] (read-out: EC50).
Turning to `CN(CCOc1ccc(CC2SC(=O)NC2=O)cc1)c1ccccn1` (stereo not given) [ROSIGLITAZONE], the Dec in the data set filed under Rattus norvegicus [26] is reported as 94%; in the data set listed under Rattus norvegicus [13], 78%; in the data set listed under Rattus norvegicus [15], 54%; in the data set listed under Rattus norvegicus [27], 86%; in the data set listed under Mus musculus [17], 75%. For the same compound, the Corr is 99% in the data set filed under Rattus norvegicus [14], 109% in the data set listed under Rattus norvegicus [18] and 65% in the data set listed under Mus musculus [20]. In data set [4], the EC50 result was “Not Active”.
In the case of `CCCc1c(OCCCSc2ccc(CC(=O)O)cc2Cl)ccc(C(C)=O)c1O`, the IC50 is 7.4 µM in data set [1] and 0.02 µM in data set [2]. The concentration for a half-maximal effect (EC50) in [3] was 0.08 µM; in data set [4] (read-out: EC50), 1.6 µM.
Regarding `CCCc1c(OCCCSc2ccc(CC(=O)O)cc2Cl)ccc2c(CC)noc12` [L-165461], the Dec in the data set listed under Rattus norvegicus [26] is listed as 42%; in the data set filed under Rattus norvegicus [27], -14%; in the data set filed under Rattus norvegicus [29], 52%; in the data set listed under Mus musculus [30], 67%; in the data set listed under Rattus norvegicus [31] it was 70%. In [1], half-maximal inhibition (IC50) required 0.57 µM. In addition, the clearance in “in vivo [8]” came out at 17.6 mL/min/kg. This compound also gave a half-life in “in vivo [10]” of 1 h. The bioavailability in “in vivo [16]” is 50%. Besides, the Corr in the data set filed under Mus musculus [28] came to 33%; in the data set listed under Rattus norvegicus [18] it was 29%; in the data set filed under Rattus norvegicus [32], 66%. For the same compound, the half-maximal effective concentration (EC50) in data set [4] (read-out: EC50) was determined as 0.247 µM.
On to `CCCc1c(OCCCSc2ccc(CC(=O)O)cc2Cl)ccc(/C(CC)=N/O)c1O`, for which the Dec amounted to 65% in the data set listed under Rattus norvegicus [26], 15% in the data set filed under Rattus norvegicus [27], 54% in the data set listed under Rattus norvegicus [29] and 80% in the data set filed under Rattus norvegicus [31]. Moreover, the results for the IC50 in [1] and in data set [2] were 0.1 µM and 0.01 µM, respectively. In the data set “in vivo [8]”, this compound registered a clearance of 5.7 mL/min/kg. This compound also had a half-life in “in vivo [10]” of 2.8 h. This compound yielded a bioavailability in “in vivo [16]” of 33%. The Corr in the data set filed under Rattus norvegicus [18] came out at 44%; in the data set listed under Rattus norvegicus [32] it was 89%. Moreover, the values for the concentration for a half-maximal effect (EC50) in [3] and in data set [4] (read-out: EC50) were 0.009 µM and 0.074 µM, respectively.
`CCCc1c(OCCCSc2ccc(CC(=O)O)cc2Cl)ccc2c(-c3ccccc3)coc12` [L-796449]: the Dec in the data set filed under Rattus norvegicus [26] stood at 66%; in the data set listed under Rattus norvegicus [13] it was 13%; in the data set listed under Rattus norvegicus [15] it was 67%; in the data set listed under Rattus norvegicus [27], 88%; in the data set filed under Mus musculus [17], 72%; in the data set listed under Mus musculus [6], 86%. This compound also returned a 50% inhibitory concentration (IC50) in [1] of 0.054 µM. In the data set listed under Mus musculus [33], the CL (mL.min-1.kg-1) came out at 3.3. Also, the half-life in “in vivo [10]” was 2.1 h. The Corr in the data set listed under Rattus norvegicus [14] stood at 27%; in the data set filed under Mus musculus [5], 94%; in the data set listed under Rattus norvegicus [18], 56%; in the data set listed under Mus musculus [20], 77%. This compound also had a bioavailability in “in vivo [16]” of 84%. Further, the EC50 in data set [4] (read-out: EC50) was found to be 0.018 µM.
